The subject of one series is IGROV1 cells. The series is described as follows: flow cytometry (FACS) of propidium-iodide stained IGROV1 cells. Type of series: cell-based, human. Particulars: 1 μM.
Series [1] relates to recruitment of CtIP to DSB sites in IGROV1 cells. The series is described as follows: immunofluorescence assay of CtIP co-localization with γH2AX after micro-irradiation. Type of series: cell-based, human. Particulars: 1 μM, 30 minutes post irradiation. The method, then:
H2AX (H2A histone family member X) becomes phosphorylated on serine 139 (wherein the phosphorylated form is then called […]) as a reaction on DNA double-strand breaks (DSB). And-1 regulates DSB end resection by establishing a condition or acting as a platform for recruitment of the tumor suppressor protein CtIP—a CtBP (carboxy-terminal binding protein)-interacting protein, to the DSB sites. […] In brief, IGROV1 cells were cultured on coverslips coated with 0.01% of poly-L-lysine. After treatment, the cells were then washed once with PBS, then pre-extracted with 0.5% Triton X-100 extraction buffer (10 mM PIPES pH 7.0, 100 mM NaCl, 3 mM MgCl2 and 300 mM sucrose) on ice for 5 minutes. After washing with PBS, cells were fixed with 4% paraformaldehyde in PBS for 15 minutes. Cells were then washed and incubated for 10 minutes in blocking buffer (PBS containing 3% BSA and 0.02% Tween-20) and subsequently incubated for 1 hour with a primary antibody at room temperature. Cells were washed three times with PBS-T (PBS containing 0.02% Tween-20) and then incubated with a secondary antibody (e.g., rabbit Alexa Fluor-594 and mouse Alexa Fluor-488). After washing with PBS-T, cells were mounted with Fluoromount G containing DAPI (4′,6-diamidino-2-phenylindole—a fluorescent stain that binds strongly to adenine-thymine-rich regions in DNA). Slides were then imaged using a Nikon Eclipse 80i microscope. […]

The next series deals with IGROV1 CR xenograft. Type of series: in vivo, mice. The method, then: To evaluate the potency of And-1 inhibitors in vivo, IGROV1 or MCF7 cells were subcutaneously implanted into nude mice to form ovarian or breast tumors, respectively. In brief, 5-6 week-old female BALB/c athymic nude mice (CByJ.Cg-Foxn1nu/J, weighting 20-25 grams) were inoculated subcutaneously by injecting the OC cells, cisplatin resistant OC cells or breast cancer cells suspended in 100 μl ice-cold Matrigel/PBS (1:1, V:V; 5×10^6/mouse) into the dorsal flank of each mouse. When the average tumor volume reached 100-150 mm^3, the mice were randomized into subsequent experiment groups. For tumors treated with CH3 only, CH3 was given at 0 mg/kg, 20 mg/kg and 40 mg/kg via intraperitoneal injection twice a week for three weeks. […] The relative tumor volumes were calculated using the formula: a×(b^2)/2, for which a and b represented the longest and shortest diameters, respectively. During the drug treatment, the tumor volume and body weight were measured. Tumor samples were collected 4 days after final administration of the drug.
To assess the efficacy of combination therapy with And-1 inhibitor and cisplatin in vivo, an IGROV1 CR xenograft was treated with vehicle, And-1 inhibitors, cisplatin or combination of cisplatin and And-1 inhibitor via intraperitoneal injection.

Series [2] concerns the target T1, And-1 (Homo sapiens, UniProt O75717).
T1 sequence (O75717 1-1129): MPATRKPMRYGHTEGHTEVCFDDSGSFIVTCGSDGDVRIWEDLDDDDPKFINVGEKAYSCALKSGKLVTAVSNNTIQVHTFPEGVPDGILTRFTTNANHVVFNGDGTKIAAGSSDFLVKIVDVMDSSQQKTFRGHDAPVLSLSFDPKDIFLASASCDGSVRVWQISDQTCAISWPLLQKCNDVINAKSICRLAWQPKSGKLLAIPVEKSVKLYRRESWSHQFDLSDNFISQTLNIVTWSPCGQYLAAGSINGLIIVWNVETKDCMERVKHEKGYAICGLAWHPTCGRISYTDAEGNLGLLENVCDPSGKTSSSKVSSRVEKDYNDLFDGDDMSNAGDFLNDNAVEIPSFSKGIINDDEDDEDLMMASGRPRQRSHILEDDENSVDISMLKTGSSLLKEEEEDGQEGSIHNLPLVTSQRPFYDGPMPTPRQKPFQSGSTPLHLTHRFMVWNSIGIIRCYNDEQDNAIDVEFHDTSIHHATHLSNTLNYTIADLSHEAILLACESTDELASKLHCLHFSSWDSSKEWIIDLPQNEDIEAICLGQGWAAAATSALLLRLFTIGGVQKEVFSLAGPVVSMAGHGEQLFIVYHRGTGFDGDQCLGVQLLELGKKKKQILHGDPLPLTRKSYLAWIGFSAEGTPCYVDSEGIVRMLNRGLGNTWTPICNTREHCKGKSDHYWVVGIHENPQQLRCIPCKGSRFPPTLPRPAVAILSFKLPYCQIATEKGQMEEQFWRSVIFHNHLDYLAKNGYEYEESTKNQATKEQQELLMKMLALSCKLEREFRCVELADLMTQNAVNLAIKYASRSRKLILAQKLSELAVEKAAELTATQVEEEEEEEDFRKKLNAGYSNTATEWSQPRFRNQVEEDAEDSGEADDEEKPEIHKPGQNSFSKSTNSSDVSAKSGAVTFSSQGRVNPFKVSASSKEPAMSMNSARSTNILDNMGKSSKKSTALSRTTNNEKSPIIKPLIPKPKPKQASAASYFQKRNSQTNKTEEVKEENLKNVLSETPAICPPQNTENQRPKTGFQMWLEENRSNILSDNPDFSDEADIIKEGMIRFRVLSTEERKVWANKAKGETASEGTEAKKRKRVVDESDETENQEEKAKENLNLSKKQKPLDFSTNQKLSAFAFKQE
The series is described as follows: immunoblot analysis of And-1 expression in IGROV1 cells. In kind it is cell-based. Further details: endogenous in cells; host or cells: IGROV1 CR. Particulars: immunoblot, read-out: IC50 for inhibition of And-1 expression. The method, then:
The high IC50 of resveratrol compromises its potential clinical application; therefore, resveratrol was used as a lead compound to screen 12 analogs of resveratrol for potent compounds that can inhibit And-1 (FIG. 14). […] To perform immunoblot analyses, cells were first treated with increasing concentrations of the 12 analogs. After treatment, the cells were harvested and then lysed with RIPA buffer protease inhibitor and phosphatase inhibitor cocktail. Protein concentration was determined by the BCA protein assay. Equal amounts of whole cell lysates were separated on sodium dodecyl sulfate polyacrylamide gel electrophoresis (SDS-PAGE) and transferred onto nitrocellulose membranes. Membranes were then incubated in blocking solution (5% non-fat milk in 20 mM TRIS-HCl, 150 mM NaCl, 0.1% Tween-20) (TBST), followed by incubation with the indicated antibodies at 4° C. overnight. The membranes were then washed in TBST and incubated with HRP-conjugated secondary antibodies for 1 hour at room temperature (21° C.±2° C.). Antibody detection was performed with an enhanced chemiluminescence reaction.

Another series concerns SREBP target gene SCD-1. The series is described as follows: RT-PCR detection of SCD-1 gene expression in AN3CA cells. Type of series: cell-based, human. Particulars: 10 μM; for activity of reducing SCD-1 gene expression (in words) / Relative mRNA expression of SCD-1: AN3CA cells; for Relative mRNA expression of SCD-1: 48 h, DMSO = 1. The method, then:
• 1. Experimental reagent • 2. The experimental steps are as follows: • 2.1 AN3CA cell recovery and culture (10% serum 1% double antibody in MEM medium); • 2.2 passages (passage at a ratio of 1:2); • 2.3 Place 6 well plates when the cell status is good, 5×10^5Well, culture overnight; • 2.4 adding medicine: diluting the final concentration of the drug with a culture medium to 10 μM, 2 mL/well; • 2.5 adding medicine for 48 h, and then extracting RNA; • 2.5.1 removing the culture medium, adding 0.5 mL/hole Trizol to lyse the cells, repeatedly blowing and beating the cells by a pipette after 5 min, completely lysing the cells, transferring the cells into a 1.5 mL EP tube without RNase, and standing the tube for 5 min; • 2.5.2 adding 200 µl chloroform, shaking rapidly, mixing, standing for 10 min 12000 rpm/15 min; • 2.5.3 carefully taking out the supernatant, transferring the supernatant into an EP tube, adding isopropanol with the same volume, reversing, uniformly mixing, standing for 10 min, and centrifuging at 12000 rpm/10 min; • 2.5.4 removing the supernatant, adding 1 mL of 75% ethanol for washing, centrifuging at 8000 rpm/5 min once, carefully removing the supernatant, standing at room temperature for 10 min to volatilize the ethanol, and dissolving the precipitate with 40 μL of DEPC treated water when the precipitate becomes transparent; • 2.5.5 RNA concentration was measured and DEPC-treated water was diluted to 100 ng/μL • 2.6 reverse transcription: Kit Takara (PrimeScript RT reagent Kit (Perfect Real Time)

The test system of series [3] is AN3CA cells. The series is described as follows: cell clonogenic assay in AN3CA cells. Type of series: cell-based, human. Particulars: 10 μM. The method, then: • 1. The experimental steps are as follows: • 1.1 AN3CA cell recovery and culture (MEM medium, 10% serum, 1% double antibody); • 1.2 Passages (1:2 ratio passage); • 1.3 When the cell state is good, laying 6-hole plates, 500/hole, and culturing overnight; • 1.4 Adding medicine: […], 2 mL/well; • 1.5 Adding medicine in a liquid changing mode every two days; • 1.6 Frequent observation. The culture was terminated when macroscopic colonies appeared in the culture dish. The supernatant was discarded, carefully rinsed 2 times with PBS and air dried. Cells were fixed with 5 mL of 4% paraformaldehyde for 30 minutes or with methanol for 10 minutes. And (3) removing the stationary liquid after air drying, adding a proper amount of GIMSA, dyeing for 10-30 minutes by using the dyeing liquid, then slowly washing away the dyeing liquid by using running water, and air drying. • 1.7 Plates were inverted and overlaid with a piece of transparent film with grid and clones were counted either directly with the naked eye or with a microscope (low power) for clones larger than 10 cells. And finally calculating the clone formation rate. • 1.8 Percent colony formation rate (number of clones/number of inoculated cells)×100%

Series [4] concerns AN3CA cells. The series is described as follows: cell proliferation assay (MTS) in AN3CA cells. In kind it is cell-based, human. Particulars: 48 h; for inhibition of AN3CA cell proliferation (in words): 10 μM. The procedure: • 1. The experimental steps are as follows: • 1.1 AN3CA cell recovery and culture (MEM medium, 10% serum, 1% double antibody); • 1.2 Passages (passage at a ratio of 1:2); • 1.3 Place 96-well plate when the cell status is good, 1×10^4 Well, culture overnight; • culture medium with 10% defatted serum • 1.4 Adding medicine: diluting the final concentration of the drug with a culture medium to 10 μM, and treating for 48 h at 100 μL/well; • culture medium with 10% defatted serum • 1.5 Addition of 2 μL MTS/well, care taken to prevent bubble formation, 490 nm data after 1-4 h

The target in series [5] is T1, And-1. The series is described as follows: inhibition of And-1 in OV90 CR cells. Further details: endogenous in cells. Type of series: cell-based. Particulars: inhibition of And-1, OV90 CR cells.
For series [6], the target named is T1, And-1. The series is described as follows: inhibition of And-1 in IGROV1 CR cells. On the set-up: endogenous in cells; host or cells: IGROV1 CR. Type of series: cell-based. Particulars: inhibition of And-1, IGROV1 CR cells.
Series [7] has as its target T1, And-1. The series is described as follows: cellular thermal shift assay. Further details: endogenous in cells; host or cells: IGROV1 CR. Particulars: cells incubated 8 hours, compared to DMSO. Type of series: binding. The method, then: To explore whether And-1 inhibitors directly bind to And-1, cellular thermal shift assays were performed in which a small molecule binds to a protein resulting in thermal stabilization of the protein. Briefly, cells were incubated with MG132 (10 μM), DHS, CH3, CH10 or DMSO for 8 hours. After washing with ice-cold PBS (suppled with Protease Inhibitor Cocktail), cells were aliquoted into PCR tubes (100 μL each) and then incubated at different temperatures (from 25° C. to 71° C.) for 4 minutes. After the cells were frozen and thawed twice using liquid nitrogen, proteins were isolated from the cells after centrifugation and incubated at 70° C. for 10 minutes for analysis by western blotting.

Regarding `CC(=O)O.Cc1c(-c2ccc(O)cc2)n(Cc2ccc(OCCN3CCCCCC3)cc2)c2ccc(O)cc12` [BZA, reference compound], the “percentage of cells in the S-phase” value in the series with IGROV1 cells was “reduced the percentage of cells in the S-phase”. The “recruitment of CtIP to DSB sites induced by micro-irradiation” value in series [1] was “significantly decreased”. In addition, in the series on IGROV1 CR xenograft (IGROV1 CR xenograft), the “And-1 expression in tumor samples (IHC)” value is “suppressed expression of And-1”. The “tumor growth, combination with cisplatin vs cisplatin alone” value in the series with IGROV1 CR xenograft (IGROV1 CR xenograft, cisplatin 8 mg/kg, CH3 20 mg/kg, BZA 2 mg/kg intraperitoneally, three weeks) is “excellent synergy in reducing tumor growth”. In the series on IGROV1 CR xenograft (mouse, in vivo), the “systemic toxicity of combination with cisplatin (body weight, H&E staining)” value was “no obvious systemic toxicity or side effect”. On And-1 [2], the IC50 is 0.32 µM.
For `OB1OCc2cc(/C=C/c3cccc(C(F)(F)F)c3)ccc21` [Compound II, (E)-5-(3-(trifluoromethyl)styryl)benzo[c][1,2]oxaborol-1(3H)-ol], in the series on SREBP target gene SCD-1, the “activity of reducing SCD-1 gene expression (in words)” value is “better than those of BF-175” and the “Relative mRNA expression of SCD-1” value was determined as 0.39. For the same compound, in the series on SREBP target gene SCD-1 (human endometrial cancer AN3CA cells), the “inhibitory effect on Srebp” value was “high inhibitory effect”. The “inhibition of clone formation rate” value with AN3CA cells [3] is on record as “completely inhibit”. Moreover, the “inhibition of AN3CA cell proliferation (in words)” value with AN3CA cells [4] is on record as “superior to BF 175”. Besides, at 10 µM the inhibition in the series on AN3CA cells [4] (Homo sapiens, AN3-CA, MTS) was 80%. The same compound came in with a half-maximal inhibitory concentration (IC50) at And-1 [5] of 21.1 µM. Moreover, 20.4 µM corresponded to half-maximal inhibition against And-1 [6] (IC50).
Regarding `Oc1ccc(/C=C/c2ccc(O)cc2)cc1` [DHS, reference compound], the IC50 on And-1 [2] turned out to be 8.92 µM. Moreover, on And-1 [7], the “thermal stabilization of And-1 protein at higher temperatures” value is “stabilized”.
For `OB1OCc2cc(/C=C/c3cc(C(F)(F)F)cc(C(F)(F)F)c3)ccc21` [IV, (E)-5-(3,5-bis(trifluoromethyl)styryl)benzo[c][1,2]oxaborol-1(3H)-ol], in the series with SREBP target gene SCD-1, the “activity of reducing SCD-1 gene expression (in words)” value is “better than those of BF-175” and the “Relative mRNA expression of SCD-1” value is on record as 0.42. In the series on AN3CA cells [4], the “inhibition of AN3CA cell proliferation (in words)” value was “different degrees of inhibition”. This compound displayed a half-maximal inhibitory concentration (IC50) on And-1 [5] of 57.9 µM. In addition, on And-1 [6], half-maximal inhibition (IC50) required 37.6 µM.

Source of the values: patent US12258360B2, “Compositions and methods for treatment of anticancer-drug resistant cancers” (THE GEORGE WASHINGTON UNIVERSITY, priority 2020, dated 2025).
